{"source": "PubChem BioAssay (NCI)", "assay_in_all_cases": "NCI anticancer screen, dose series, 48 h", "key": {"[1]": {"tested_on": "MDA-MB-468 breast"}, "[2]": {"tested_on": "SK-OV-3 ovarian"}, "[3]": {"tested_on": "A498 renal"}, "[4]": {"tested_on": "SK-MEL-28 melanoma"}, "[5]": {"tested_on": "MDA-MB-231 breast"}, "[6]": {"tested_on": "SW-620 colon"}, "[7]": {"tested_on": "RXF 393 renal"}, "[8]": {"tested_on": "SNB-75 CNS"}, "[9]": {"tested_on": "HS 578T breast"}, "[10]": {"tested_on": "DU-145 prostate"}, "[11]": {"tested_on": "SF-539 CNS"}, "[12]": {"tested_on": "COLO 205 colon"}, "[13]": {"tested_on": "CCRF-CEM leukemia"}, "[14]": {"tested_on": "CAKI-1 renal"}, "[15]": {"tested_on": "HCC-2998 colon"}, "[16]": {"tested_on": "IGROV1 ovarian"}, "[17]": {"tested_on": "U251 CNS"}, "[18]": {"tested_on": "MDA-MB-435"}, "[19]": {"tested_on": "NCI-H226 lung"}, "[20]": {"tested_on": "TK-10 renal"}, "[21]": {"tested_on": "OVCAR-5 ovarian"}, "[22]": {"tested_on": "HCT-116 colon"}, "[23]": {"tested_on": "BT-549 breast"}, "[24]": {"tested_on": "MOLT-4 leukemia"}, "[25]": {"tested_on": "HOP-62 NSCLC"}, "[26]": {"tested_on": "SNB-19 CNS"}, "[27]": {"tested_on": "OVCAR-3 ovarian"}}, "note": "Where “and” joins values, the source holds several entries; their conditions need not be identical. Equal entries are not always repeated.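 These data come from cells grown in 96-well plates and exposed to compound for 48 hours at five concentrations. The concentration for 50% growth inhibition is given as GI50. The concentration for full growth arrest is given as TGI.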"}
{"compound": "NCCSC1(O)C(=O)c2ccccc2-c2ccccc21", "note": "(stereo unspecified)", "values": [{"measurement": "GI50", "setting": "[1]", "result": 0.615, "unit": "µM"}, {"measurement": "TGI", "setting": "[1]", "result": 2.12, "unit": "µM"}]}
{"compound": "Cc1cccc2c1NC(=O)[C@@H](NC(=O)[C@H](CCC(F)(F)F)[C@H](CCC(F)(F)F)C(N)=O)N=C2c1cccc(F)c1", "values": [{"measurement": "GI50", "setting": "[1]", "result": 18.5, "unit": "µM"}, {"measurement": "TGI", "setting": "[1]", "result": "> 100", "unit": "µM"}]}
{"compound": "COc1cc2cc(Oc3ccc(NC(=O)Nc4ccc(F)c(C(F)(F)F)c4)cc3)c(C)nc2cc1OCCN1CCOCC1", "values": [{"measurement": "GI50", "setting": "[1]", "result": 0.451, "unit": "µM"}, {"measurement": "TGI", "setting": "[1]", "result": 10.4, "unit": "µM"}]}
{"compound": "N#C/C(=C\\c1ccc([N+](=O)[O-])cc1)n1nnc2cc(F)c(F)cc21", "values": [{"measurement": "GI50", "setting": "[1]", "result": 1.51, "unit": "µM"}, {"measurement": "TGI", "setting": "[1]", "result": 3.53, "unit": "µM"}]}
{"compound": "CCOC(=O)Nc1ccc2c3c(cccc13)-c1ccccc1-2", "values": [{"measurement": "GI50", "setting": "[1]", "result": 1.37, "unit": "µM"}, {"measurement": "TGI", "setting": "[1]", "result": 5.21, "unit": "µM"}]}
{"compound": "ClCCN(CCCl)c1ccc(OCc2ccccc2)cc1", "values": [{"measurement": "GI50", "setting": "[1]", "result": 1.45, "unit": "µM"}, {"measurement": "TGI", "setting": "[1]", "result": 16.7, "unit": "µM"}]}
{"compound": "Nc1n[nH]c2ccc([C@H]3[C@@H]4C5CCC(C5)[C@@H]4c4c(ccc5[nH]ncc45)N3S(=O)(=O)C3CC3)cc12", "note": "(stereo partly specified)", "values": [{"measurement": "GI50", "setting": "[1]", "result": 0.137, "unit": "µM"}, {"measurement": "TGI", "setting": "[1]", "result": 1.7, "unit": "µM"}]}
{"compound": "CC(=O)N[C@@H](Cc1ccc(OP(=O)(O)O)cc1)C(=O)N[C@H]1CCC(=O)N2CCC[C@@H](C(=O)NCc3cccc4ccccc34)N2C1=O", "values": [{"measurement": "GI50", "setting": "[1]", "result": "> 25", "unit": "µM"}, {"measurement": "TGI", "setting": "[1]", "result": "> 25", "unit": "µM"}]}
{"compound": "NS(=O)(=O)c1ccc(N=Nc2c(O)[nH]c3cccc(CCc4ccncc4)c23)cc1", "values": [{"measurement": "GI50", "setting": "[1]", "result": "> 25", "unit": "µM"}, {"measurement": "TGI", "setting": "[1]", "result": "> 25", "unit": "µM"}]}
{"compound": "O=C(NC(=S)Nc1ccc(-c2nc3ccccc3[nH]2)cc1)c1ccc2ccccc2c1", "values": [{"measurement": "GI50", "setting": "[1]", "result": 2.34, "unit": "µM"}, {"measurement": "TGI", "setting": "[1]", "result": 7.72, "unit": "µM"}]}
{"compound": "COc1ncnn2ccc(-c3cnc4nc(C)n(Cc5nnc(C(C)F)o5)c4c3)c12", "note": "(stereo unspecified)", "values": [{"measurement": "GI50", "setting": "[1]", "result": 0.051, "unit": "µM"}, {"measurement": "TGI", "setting": "[1]", "result": 0.309, "unit": "µM"}]}
{"compound": "O=C1/C(=C\\c2ccc(Cl)cc2)CN(C(=O)c2ccccc2)C/C1=C\\c1ccc(Cl)cc1", "values": [{"measurement": "GI50", "setting": "[1]", "result": 1.86, "unit": "µM"}, {"measurement": "TGI", "setting": "[1]", "result": 4.28, "unit": "µM"}]}
{"compound": "O=C(CSc1nc2ccc([N+](=O)[O-])cc2[nH]1)Nc1ccc([N+](=O)[O-])cc1", "values": [{"measurement": "GI50", "setting": "[1]", "result": 1.08, "unit": "µM"}, {"measurement": "TGI", "setting": "[1]", "result": 5.05, "unit": "µM"}]}
{"compound": "COc1cccc(Nc2ncnn3ccc(CN4CC[C@@H](N)[C@H](O)C4)c23)c1", "values": [{"measurement": "GI50", "setting": "[1]", "result": "0.0333 µM and 0.0201 µM"}, {"measurement": "TGI", "setting": "[1]", "result": "0.79 µM and 0.175 µM"}]}
{"compound": "COC(=O)CC12CC(NC(=O)c3csc([C@@H](C[C@H](C(C)C)N(C)C(=O)[C@@H](NC(=O)[C@H]4CCCCN4C)C(C)C)OC(C)=O)n3)(C1)C2", "values": [{"measurement": "GI50", "setting": "[1]", "result": 0.00438, "unit": "µM"}, {"measurement": "TGI", "setting": "[1]", "result": "> 33.3", "unit": "µM"}]}
{"compound": "CN1CCN(Cc2ccc(NC(=O)c3cncc(C#Cc4cnc5ccc(OCC6COC6)nn45)c3)cc2C(F)(F)F)CC1", "values": [{"measurement": "GI50", "setting": "[1]", "result": 0.196, "unit": "µM"}, {"measurement": "TGI", "setting": "[1]", "result": 0.726, "unit": "µM"}]}
{"compound": "CN1CCN(C(=O)OCc2nc3c(N4CCOCC4)nc(-c4ccccc4)nc3n2C)CC1", "values": [{"measurement": "GI50", "setting": "[1]", "result": 0.558, "unit": "µM"}, {"measurement": "TGI", "setting": "[1]", "result": 2.02, "unit": "µM"}]}
{"compound": "CN1CCc2c(sc3ncnc(N/N=C/c4cn(-c5ccccc5)nc4-c4ccc(Br)cc4)c23)C1", "values": [{"measurement": "GI50", "setting": "[2]", "result": "> 100", "unit": "µM"}, {"measurement": "TGI", "setting": "[2]", "result": "> 100", "unit": "µM"}, {"measurement": "GI50", "setting": "[3]", "result": "> 100", "unit": "µM"}, {"measurement": "TGI", "setting": "[3]", "result": "> 100", "unit": "µM"}, {"measurement": "GI50", "setting": "[4]", "result": "> 100", "unit": "µM"}, {"measurement": "TGI", "setting": "[4]", "result": "> 100", "unit": "µM"}, {"measurement": "GI50", "setting": "[5]", "result": 0.362, "unit": "µM"}, {"measurement": "TGI", "setting": "[5]", "result": "> 100", "unit": "µM"}, {"measurement": "GI50", "setting": "[6]", "result": 0.352, "unit": "µM"}, {"measurement": "TGI", "setting": "[6]", "result": "> 100", "unit": "µM"}, {"measurement": "GI50", "setting": "[7]", "result": 18.3, "unit": "µM"}, {"measurement": "TGI", "setting": "[7]", "result": "> 80.7", "unit": "µM"}, {"measurement": "GI50", "setting": "[8]", "result": 5.88, "unit": "µM"}, {"measurement": "TGI", "setting": "[8]", "result": "> 100", "unit": "µM"}, {"measurement": "GI50", "setting": "[9]", "result": 16.4, "unit": "µM"}, {"measurement": "TGI", "setting": "[9]", "result": "> 100", "unit": "µM"}, {"measurement": "GI50", "setting": "[10]", "result": "> 100", "unit": "µM"}, {"measurement": "TGI", "setting": "[10]", "result": "> 100", "unit": "µM"}, {"measurement": "GI50", "setting": "[11]", "result": 0.282, "unit": "µM"}, {"measurement": "TGI", "setting": "[11]", "result": "> 100", "unit": "µM"}, {"measurement": "GI50", "setting": "[12]", "result": 0.332, "unit": "µM"}, {"measurement": "TGI", "setting": "[12]", "result": "> 100", "unit": "µM"}, {"measurement": "GI50", "setting": "[13]", "result": 0.196, "unit": "µM"}, {"measurement": "TGI", "setting": "[13]", "result": "> 100", "unit": "µM"}, {"measurement": "GI50", "setting": "[14]", "result": "> 100", "unit": "µM"}, {"measurement": "TGI", "setting": "[14]", "result": "> 100", "unit": "µM"}, {"measurement": "GI50", "setting": "[15]", "result": 0.285, "unit": "µM"}, {"measurement": "TGI", "setting": "[15]", "result": "> 100", "unit": "µM"}, {"measurement": "GI50", "setting": "[16]", "result": 0.322, "unit": "µM"}, {"measurement": "TGI", "setting": "[16]", "result": "> 100", "unit": "µM"}, {"measurement": "GI50", "setting": "[17]", "result": 0.636, "unit": "µM"}, {"measurement": "TGI", "setting": "[17]", "result": "> 100", "unit": "µM"}, {"measurement": "GI50", "setting": "[18]", "result": "> 100", "unit": "µM"}, {"measurement": "TGI", "setting": "[18]", "result": "> 100", "unit": "µM"}, {"measurement": "GI50", "setting": "[19]", "result": "> 100", "unit": "µM"}, {"measurement": "TGI", "setting": "[19]", "result": "> 100", "unit": "µM"}, {"measurement": "GI50", "setting": "[20]", "result": "> 100", "unit": "µM"}, {"measurement": "TGI", "setting": "[20]", "result": "> 100", "unit": "µM"}, {"measurement": "GI50", "setting": "[21]", "result": "> 100", "unit": "µM"}, {"measurement": "TGI", "setting": "[21]", "result": "> 100", "unit": "µM"}, {"measurement": "GI50", "setting": "[22]", "result": 0.102, "unit": "µM"}, {"measurement": "TGI", "setting": "[22]", "result": "> 100", "unit": "µM"}, {"measurement": "GI50", "setting": "[23]", "result": "> 100", "unit": "µM"}, {"measurement": "TGI", "setting": "[23]", "result": "> 100", "unit": "µM"}, {"measurement": "GI50", "setting": "[24]", "result": 0.261, "unit": "µM"}, {"measurement": "TGI", "setting": "[24]", "result": "> 100", "unit": "µM"}, {"measurement": "GI50", "setting": "[25]", "result": 0.399, "unit": "µM"}, {"measurement": "TGI", "setting": "[25]", "result": "> 100", "unit": "µM"}, {"measurement": "GI50", "setting": "[26]", "result": 20.3, "unit": "µM"}, {"measurement": "TGI", "setting": "[26]", "result": "> 100", "unit": "µM"}, {"measurement": "GI50", "setting": "[27]", "result": 0.0375, "unit": "µM"}, {"measurement": "TGI", "setting": "[27]", "result": 0.304, "unit": "µM"}]}
